Where two headings read alike, the source gives them in different places. One block for each compound: values may come before it.
Experiments:
[1] = molecular target: T1, α-glucosidase (Saccharomyces cerevisiae, UniProt P53341); experiment: In vitro glycosidase inhibition, α-glucosidase (yeast); type: biochemical
T1 construct: purchased Sigma-Aldrich Co
Method: (§1) All glycosidases and p-nitrophenyl glycosides were purchased from Sigma-Aldrich Co. The enzyme assays were performed according to the methods described in Kato, A.; Miyauchi, S.; Kato, N.; Nash, R. J.; Yoshimura, Y.; Nakagome, I.; Hirono, S.; Takahata, H.; Adachi, I. Bioorg. Med. Chem. 19, 3558-3568, 2011. The activities were determined using an appropriate p-nitrophenyl glycoside as substrate at the optimum pH of each enzyme. The reaction mixture contained 2 mM of the substrate and the appropriate amount of enzyme. The reaction was stopped by adding 2 mL of 400 mM Na2CO3. The released p-nitrophenol was measured spectrometrically at 400 nm.

[2] = molecular target: T2, α-glucosidase (Oryza sativa subsp. japonica, UniProt Q653V7); experiment: In vitro glycosidase inhibition, α-glucosidase (rice); type: biochemical
T2 construct: purchased Sigma-Aldrich Co
Method: as §1

[3] = molecular target: rat intestinal maltase; experiment: In vitro glycosidase inhibition, α-glucosidase (rat intestinal maltase); type: biochemical
Method: as §1

[4] = molecular target: β-glucosidase; experiment: In vitro glycosidase inhibition, β-glucosidase (almond); type: biochemical
Method: as §1

[5] = molecular target: β-glucosidase; experiment: In vitro glycosidase inhibition, β-glucosidase (bovine liver); type: biochemical
Method: as §1

[6] = molecular target: T3, α-galactosidase (Coffea arabica, UniProt Q42656); experiment: In vitro glycosidase inhibition, α-galactosidase (coffee beans); type: biochemical
T3 construct: purchased Sigma-Aldrich Co
Method: as §1

[7] = system: β-galactosidase; experiment: In vitro glycosidase inhibition, β-galactosidase (bovine liver); type: biochemical
Method: as §1

[8] = molecular target: T4, α-mannosidase (Canavalia ensiformis, UniProt C0HJB3); experiment: In vitro glycosidase inhibition, α-mannosidase (jack beans); type: biochemical
T4 construct: purchased Sigma-Aldrich Co
T4 sequence (C0HJB3 1-981): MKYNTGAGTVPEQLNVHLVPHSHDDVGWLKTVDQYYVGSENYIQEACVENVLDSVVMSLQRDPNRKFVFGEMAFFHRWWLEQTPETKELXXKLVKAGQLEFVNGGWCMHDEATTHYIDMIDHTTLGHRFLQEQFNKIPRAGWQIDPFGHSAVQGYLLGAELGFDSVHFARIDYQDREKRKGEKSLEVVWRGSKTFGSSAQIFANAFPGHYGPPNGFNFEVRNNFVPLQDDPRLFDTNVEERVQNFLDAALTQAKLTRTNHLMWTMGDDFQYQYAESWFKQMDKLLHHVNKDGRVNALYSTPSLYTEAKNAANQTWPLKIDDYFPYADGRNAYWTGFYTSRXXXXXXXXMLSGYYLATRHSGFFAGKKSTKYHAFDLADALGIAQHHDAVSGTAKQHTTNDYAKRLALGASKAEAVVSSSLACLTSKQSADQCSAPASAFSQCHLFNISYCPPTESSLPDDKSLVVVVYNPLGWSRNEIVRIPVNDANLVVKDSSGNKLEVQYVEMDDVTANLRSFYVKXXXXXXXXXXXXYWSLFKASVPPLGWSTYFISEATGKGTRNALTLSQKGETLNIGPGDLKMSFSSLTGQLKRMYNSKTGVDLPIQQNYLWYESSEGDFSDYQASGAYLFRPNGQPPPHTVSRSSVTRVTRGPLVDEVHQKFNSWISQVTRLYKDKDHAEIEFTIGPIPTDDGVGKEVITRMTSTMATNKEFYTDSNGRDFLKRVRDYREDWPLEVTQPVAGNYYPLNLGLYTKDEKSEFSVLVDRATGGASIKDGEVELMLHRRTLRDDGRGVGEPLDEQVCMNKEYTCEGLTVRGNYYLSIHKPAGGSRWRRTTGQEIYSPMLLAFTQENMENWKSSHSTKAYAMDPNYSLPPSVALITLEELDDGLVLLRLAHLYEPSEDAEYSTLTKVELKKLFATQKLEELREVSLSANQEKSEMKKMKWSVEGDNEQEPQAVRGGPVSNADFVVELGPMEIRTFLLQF
Method: as §1

[9] = molecular target: β-mannosidase; experiment: In vitro glycosidase inhibition, β-mannosidase (snail); type: biochemical
Method: as §1

[10] = system: β-N-acetyl hexosaminidase; experiment: In vitro glycosidase inhibition, β-N-acetyl hexosaminidase (human placenta); type: biochemical; settings: for selectivity of inhibitory activity towards β-N-acetyl hexosaminidase: versus the other glycosidases of Table 1; for IC50: β-N-acetyl hexosaminidase, human placenta
Method: as §1

[11] = molecular target: β-N-acetyl hexosaminidase; experiment: In vitro glycosidase inhibition, β-N-acetyl hexosaminidase (bovine kidney); type: biochemical
Method: as §1

[12] = molecular target: T5, α-N-acetyl galactosaminidase (Gallus gallus, UniProt Q90744); experiment: In vitro glycosidase inhibition, α-N-acetyl galactosaminidase (chicken liver); type: biochemical
T5 construct: purchased Sigma-Aldrich Co; host or cells: chicken liver
T5 sequence (Q90744 1-405): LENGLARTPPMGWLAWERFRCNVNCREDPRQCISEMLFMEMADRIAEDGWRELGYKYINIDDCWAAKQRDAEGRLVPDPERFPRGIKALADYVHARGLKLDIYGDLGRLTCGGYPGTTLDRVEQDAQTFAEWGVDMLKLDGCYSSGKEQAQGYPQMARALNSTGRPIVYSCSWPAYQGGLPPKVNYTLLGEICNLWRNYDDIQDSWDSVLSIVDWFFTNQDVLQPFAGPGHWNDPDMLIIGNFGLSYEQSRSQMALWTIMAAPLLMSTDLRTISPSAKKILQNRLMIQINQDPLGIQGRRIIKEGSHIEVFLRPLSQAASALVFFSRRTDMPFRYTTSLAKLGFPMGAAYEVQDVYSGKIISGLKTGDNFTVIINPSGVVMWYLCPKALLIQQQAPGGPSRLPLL
Method: as §1

[13] = system: α-N-acetylglucosaminidase (NAGLU); experiment: Enzyme activation assay, MPS IIIB fibroblasts GM01426; type: cell-based, human; settings: 3 days, 0-10 μM
Method: (§2) Compounds (1) and (B) (compound (B) is described in A. Vasella, Helvetica Chimica Acta, 1998, 865) were tested in 3 Sanfillipo patient-derived fibroblast cell lines, named as MPS IIIB fibroblast cells lines below.
(§3) MPS IIIB fibroblasts (GM01426, GM02931 and GM00737) were cultured in the presence of various concentrations of compounds (1) and (B) (0-10 μM) for 3 days before α-N-acetylglucosaminidase (NAGLU) activity was measured in cell homogenates using 4-methylumbelliferyl-α-N-acetylglucosamine (4-MU-α-GlcNAc) as substrate. Cells were washed twice in phosphate buffered saline, homogenised in water using a small dounce homogeniser, centrifuged at 800 g for 5 min and the supernatant taken for protein and enzyme activity. Protein concentration was determined using the BCA assay (Pierce, UK) according to manufacturer's instructions. An aliquot, (5 μl) of homogenate was added to a well of a 96-well plate containing 10 μl 2 mM 4-MU substrate (in water) and 5 μl 0.2 M sodium acetate buffer, pH 4.3. Following incubation for 3-4 h at 37° C. in a humidified incubator, the reaction was stopped by adding 300 μl 0.5 M glycine/NaOH, pH 10.3 and the fluorescence measured at 460 nm using an excitation wavelength of 350 nm, em 460 nm. Enzyme activation is defined as the fold increase in fluorescence due to enzyme activity (FU/μg protein) in treated cells compared to untreated cells. […]

[14] = system: α-N-acetylglucosaminidase (NAGLU); experiment: Enzyme activation assay, MPS IIIB fibroblasts GM00737; type: cell-based, human; settings: 3 days, 0-10 μM
Method: as §2, §3

[15] = system: α-N-acetylglucosaminidase (NAGLU); experiment: Enzyme activation assay, MPS IIIB fibroblasts GM02931; type: cell-based, human; settings: 3 days, 0-10 μM
Method: as §2, §3

[16] = read-out: % of inhibition at 1000 μM
[17] = 1000 μM, read-out: % of inhibition at 1000 μM

T1 sequence (P53341 whole entry): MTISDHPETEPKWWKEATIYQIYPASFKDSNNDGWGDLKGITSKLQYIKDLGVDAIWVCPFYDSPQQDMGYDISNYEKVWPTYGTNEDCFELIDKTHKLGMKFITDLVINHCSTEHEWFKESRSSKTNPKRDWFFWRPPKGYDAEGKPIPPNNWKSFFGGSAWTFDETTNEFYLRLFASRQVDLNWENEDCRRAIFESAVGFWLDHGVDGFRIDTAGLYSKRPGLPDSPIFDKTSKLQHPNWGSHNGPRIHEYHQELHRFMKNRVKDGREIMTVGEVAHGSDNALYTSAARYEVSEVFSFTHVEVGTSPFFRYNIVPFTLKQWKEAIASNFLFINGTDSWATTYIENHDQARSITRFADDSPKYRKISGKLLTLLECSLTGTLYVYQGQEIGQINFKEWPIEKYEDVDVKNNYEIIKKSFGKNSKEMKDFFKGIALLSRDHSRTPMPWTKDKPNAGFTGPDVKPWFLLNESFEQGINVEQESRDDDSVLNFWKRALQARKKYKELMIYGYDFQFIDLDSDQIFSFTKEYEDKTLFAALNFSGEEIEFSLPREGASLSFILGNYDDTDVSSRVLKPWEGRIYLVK
T2 sequence (Q653V7 34-885): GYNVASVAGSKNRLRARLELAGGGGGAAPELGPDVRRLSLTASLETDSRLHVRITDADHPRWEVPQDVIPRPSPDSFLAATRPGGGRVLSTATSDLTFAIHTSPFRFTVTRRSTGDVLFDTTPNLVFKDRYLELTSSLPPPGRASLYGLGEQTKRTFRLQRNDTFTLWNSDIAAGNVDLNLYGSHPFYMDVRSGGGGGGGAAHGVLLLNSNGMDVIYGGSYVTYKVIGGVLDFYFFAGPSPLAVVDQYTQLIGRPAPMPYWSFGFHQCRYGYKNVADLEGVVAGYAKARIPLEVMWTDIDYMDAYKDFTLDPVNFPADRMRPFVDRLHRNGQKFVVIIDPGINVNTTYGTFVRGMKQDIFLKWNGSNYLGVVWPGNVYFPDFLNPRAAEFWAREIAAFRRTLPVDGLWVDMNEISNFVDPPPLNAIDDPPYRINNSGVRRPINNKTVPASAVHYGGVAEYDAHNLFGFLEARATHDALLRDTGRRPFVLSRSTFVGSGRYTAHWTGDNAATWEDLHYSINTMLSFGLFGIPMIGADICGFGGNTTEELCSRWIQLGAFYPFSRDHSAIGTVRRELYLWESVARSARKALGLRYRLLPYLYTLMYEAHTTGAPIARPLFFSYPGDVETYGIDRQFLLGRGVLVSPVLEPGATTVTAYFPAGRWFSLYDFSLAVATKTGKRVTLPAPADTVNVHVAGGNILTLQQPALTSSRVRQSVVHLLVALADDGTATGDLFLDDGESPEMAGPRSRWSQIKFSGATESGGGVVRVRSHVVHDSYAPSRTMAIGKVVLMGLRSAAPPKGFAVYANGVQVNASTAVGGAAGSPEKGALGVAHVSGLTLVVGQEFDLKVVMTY
T3 sequence (Q42656 16-378): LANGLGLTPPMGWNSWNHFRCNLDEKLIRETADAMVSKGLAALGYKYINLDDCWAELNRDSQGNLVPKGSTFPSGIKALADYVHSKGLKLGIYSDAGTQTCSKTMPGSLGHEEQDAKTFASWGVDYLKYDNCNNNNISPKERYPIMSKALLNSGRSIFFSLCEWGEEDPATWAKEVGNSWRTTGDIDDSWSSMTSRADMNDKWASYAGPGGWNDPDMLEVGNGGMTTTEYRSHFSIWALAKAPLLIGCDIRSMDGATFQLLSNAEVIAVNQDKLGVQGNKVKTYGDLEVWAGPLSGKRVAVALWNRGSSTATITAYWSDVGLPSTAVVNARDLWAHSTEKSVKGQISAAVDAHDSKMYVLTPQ

Compound: CC(=O)N[C@@H]1[C@@H](O)[C@H](O)[C@@H](CO)N[C@H]1CO [1′, N-((2R,3R,4R,5S,6R)-3,4-dihydroxy-2,6-bis(hydroxymethyl)piperidin-5-yl)acetamide]
inhibition at 1000 µM [1, 16]: 15.4%
inhibition at 1000 µM ([1]; α-glucosidase, yeast, read-out: IC50): < 50%
inhibition at 1000 µM [2, 17]: 15.9%
inhibition at 1000 µM ([2]; read-out: IC50): < 50%
IC50 [3]: NI (No Inhibition (less than 50% inhibition at 1000 μM))
% of inhibition at 1000 μM [3]: 1.3%
IC50 [4]: NI (No Inhibition (less than 50% inhibition at 1000 μM))
% of inhibition at 1000 μM [4]: 18.3%
IC50 [5]: NI (No Inhibition (less than 50% inhibition at 1000 μM))
% of inhibition at 1000 μM [5]: 15.5%
inhibition at 1000 µM [6, 17]: 13.1%
inhibition at 1000 µM ([6]; read-out: IC50): < 50%
% of inhibition at 1000 μM [7]: 5.7%
inhibition at 1000 µM [8, 17]: 0%
inhibition at 1000 µM ([8]; read-out: IC50): < 50%
IC50 [9]: NI (No Inhibition (less than 50% inhibition at 1000 μM))
% of inhibition at 1000 μM [9]: 0%
selectivity of inhibitory activity towards β-N-acetyl hexosaminidase [10]: selective inhibitory activity
IC50 [10]: 72 µM
IC50 [11]: 65 µM
inhibition at 1000 µM [12, 17]: 42.7%
inhibition at 1000 µM ([12]; read-out: IC50): < 50%

Compound: CC(=O)N[C@@H]1[C@@H](O)[C@H](O)[C@@H](CO)N[C@@H]1CO [Compound 1, N-((2R,3R,4R,5S,6S)-3,4-dihydroxy-2,6-bis(hydroxymethyl)piperidin-5-yl)acetamide]
inhibition at 1000 µM [1, 16]: 18.5%
inhibition at 1000 µM ([1]; read-out: IC50): < 50%
inhibition at 1000 µM [2, 17]: 32.3%
inhibition at 1000 µM ([2]; read-out: IC50): < 50%
IC50 [3]: NI (No Inhibition (less than 50% inhibition at 1000 μM))
% of inhibition at 1000 μM [3]: 26.7%
IC50 [4]: NI (No Inhibition (less than 50% inhibition at 1000 μM))
% of inhibition at 1000 μM [4]: 5.0%
IC50 [5]: NI (No Inhibition (less than 50% inhibition at 1000 μM))
% of inhibition at 1000 μM [5]: 4.4%
inhibition at 1000 µM [6, 17]: 19.7%
inhibition at 1000 µM ([6]; read-out: IC50): < 50%
% of inhibition at 1000 μM [7]: 5.0%
inhibition at 1000 µM [8, 17]: 2.3%
inhibition at 1000 µM ([8]; read-out: IC50): < 50%
IC50 [9]: NI (No Inhibition (less than 50% inhibition at 1000 μM))
% of inhibition at 1000 μM [9]: 1.9%
selectivity of inhibitory activity towards β-N-acetyl hexosaminidase [10]: selective inhibitory activity
IC50 [10]: 56 µM
IC50 [11]: 67 µM
inhibition at 1000 µM [12, 17]: 42.4%
inhibition at 1000 µM ([12]; read-out: IC50): < 50%

NAGLU enzyme activation, result in words [14]: activation at lower concentrations
NAGLU enzyme activation, result in words [15]: activation at lower concentrations
Compound: N-((2R,3R,4R,5S,6S)-3,4-dihydroxy-2,6-bis(hydroxymethyl)piperidin-5-yl)acetamide [Compound 1]
NAGLU enzyme activation, result in words [13]: concentration dependent increase up to 1 μM
NAGLU enzyme activation (fold increase in FU/μg protein vs untreated cells) ([13]; best activation seen): 2.4 fold

From patent US20140296288A1, “IMINO-SUGAR C-GLYCOSIDES, PREPARATION AND USE THEREOF” (UNIVERSITE PIERRE ET MARIE CURIE (PARIS 6), priority 2011, published 2014)
